Measurements from PubChem BioAssay AID2060894 (Molecular Pharmacology Branch, DTP, NCI, 2025).

Tested on: K12877-001-R-J1-PDC complex spheroid viability
Assay: Anticancer human tumor K12877-001-R-J1-PDC patient-derived lung adenocarcinoma cell line growth inhibition [RAS]
Conditions: for IC50: curve of first compound; for viability, T/C: stronger effect = lower value
Description: RAS pathway inhibitors in Combinations in Complex Spheroids
A high-throughput screen of multi-cell type tumor spheroids was designed to identify active combinations of RAS pathway inhibitors and targeted small molecules. Complex spheroids include a stromal component modeled by human endothelial cells (HUVEC) and fibroblasts modeled by human mesenchymal stem cells (MSCs). The concentration ranges selected for each drug and investigational agent were based upon clinically achievable concentrations if the clinical Cmax of the agent was known.
Compounds. The drugs and investigational agents: abemaciclib (NSC768073), cobimetinib (NSC768068), divarasib (GDC6063, NSC841802), docetaxel (NSC628503), GDC-1971 (RLY-1971, NSC841576), gemcitabine (NSC613327), inavolisib (NSC800729), ipatasertib (NSC767898), KB-0742 (NSC834161), MRTX-1133 (NSC836407), osimertinib (NSC779217), RMC-4630 (NSC839698), RMC-6236 (NSC851965), RMC-6291 (NSC852671), Ro-3306 (NSC812927), sapanisertib (NSC764658), SN-38 (NSC673596), staurosporine (NSC755774), SY5609 (NSC837396), and tovorafenib (DAY101, NSC766906), were obtained from the National Cancer Institute (NCI) Developmental Therapeutics Program Chemical Repository. The FDA-approved anticancer drug set is available from the NCI Developmental Therapeutics Program. […] The stock solutions were prepared in dimethyl sulfoxide (DMSO, Sigma-Aldrich, St. Louis, MO, cat. D2650) at 800-fold the tested concentration and stored at -70 degrees C prior to their use. All drugs and investigational agents were tested over a range starting from a high concentration at or near the clinical Cmax and decreasing in half-log increments. If the clinical Cmax for an agent had not been determined, the highest concentration tested was 10 microM.
Cell Culture. All cells were maintained in an incubator at 37 degrees C and 5% CO2 with 95% humidity. The PDC lines were cultured according to standard operating procedures established by the NCI PDMR. All PDCs were thawed and cultured in Matrigel-coated flasks prepared with a working solution of 1X Ham's F-12 nutrient mix, without supplementation (Invitrogen, Waltham, MA, cat. 11765054), 100 U/mL penicillin-streptomycin (Invitrogen, cat. 15140122), and 2.5% Matrigel (Corning Inc., Corning, NY, cat. 354248) for the first three passages. The 362531-283-R-J2-PDC and 782815-120-R-J1-PDC lines were cultured in 6C/Colon 1B media, which includes advanced DMEM/F-12 (Thermo Fisher Scientific, cat. 12634028), 10 mM HEPES (Thermo Fisher Scientific, cat. 15630080), 1X GlutaMAX supplement (Thermo Fisher Scientific, cat. 35050061), 0.1 mg/mL primocin (InvivoGen, San Diego, CA, cat. ant-pm-2), 10% defined fetal bovine serum, heat inactivated (HyClone Laboratories Inc., Logan, UT, cat. SH30070.03HI), 50% L-WRN conditioned media (ATCC, cat. CRL-3276), 1.25 mM N-Acetyl-L-cysteine (Sigma-Aldrich, cat. A9165), 10 mM nicotinamide (Sigma-Aldrich, cat. N0636), 1X B-27 supplement (Thermo Fisher Scientific, cat. 17504044), 1X N-2 supplement (Thermo Fisher Scientific, cat. 17502048), 50 ng/mL human EGF (Thermo Fisher Scientific, cat. PHG0311), and 10 microM Y-27632 dihydrochloride (Tocris Bioscience, cat. 1254). The K12877-001-R-J1-PDC line was cultured in 6I media, which includes all 6C/Colon 1B media plus 10 ng/mL human FGF-10 (PeproTech, cat. 100-26), 1 ng/mL human FGF-2 (PeproTech, cat. 100-18B), 1 µM prostaglandin E2 (Tocris Bioscience, cat. 2296), […] hydrocortisone (Sigma-Aldrich, cat. H4001), and […] bovine insulin (Sigma-Aldrich, cat. I6634). The K86415-001-R-J1-PDC line was cultured in 6D media, which includes all 6C/Colon 1B media components minus the L-WRN conditioned media. The 485176-168-R4-J1-PDC was cultured in PANC media, which includes all 6C/Colon 1B media plus 100 ng/mL human FGF-10 (PeproTech, cat. 100-26), 500 nM SB-431542 (Selleckchem, cat. S1067), and 10 nM gastrin (Tocris Bioscience, cat. 3006). […]

[1] = second compound 0.000949 µM, first compound 0.0316 µM
[2] = second compound 0.000949 µM, first compound 0.1 µM
[3] = second compound 0.000949 µM, first compound 0.316 µM
[4] = second compound 0.000949 µM, first compound 1 µM
[5] = second compound 0.000949 µM, first compound 3.16 µM
[6] = second compound 0.000949 µM, first compound 10 µM
[7] = second compound 0.003 µM, first compound 0.0316 µM
[8] = second compound 0.003 µM, first compound 0.1 µM
[9] = second compound 0.003 µM, first compound 0.316 µM
[10] = second compound 0.003 µM, first compound 1 µM
[11] = second compound 0.003 µM, first compound 3.16 µM
[12] = second compound 0.003 µM, first compound 10 µM
[13] = second compound 0.00949 µM, first compound 0.0316 µM
[14] = second compound 0.00949 µM, first compound 0.1 µM
[15] = second compound 0.00949 µM, first compound 0.316 µM
[16] = second compound 0.00949 µM, first compound 1 µM
[17] = second compound 0.00949 µM, first compound 3.16 µM
[18] = second compound 0.00949 µM, first compound 10 µM
[19] = second compound 0.03 µM, first compound 0.0316 µM
[20] = second compound 0.03 µM, first compound 0.1 µM
[21] = second compound 0.03 µM, first compound 0.316 µM
[22] = second compound 0.03 µM, first compound 1 µM
[23] = second compound 0.03 µM, first compound 3.16 µM
[24] = second compound 0.03 µM, first compound 10 µM
[25] = second compound 0.0949 µM, first compound 0.0316 µM
[26] = second compound 0.0949 µM, first compound 0.1 µM
[27] = second compound 0.0949 µM, first compound 0.316 µM
[28] = second compound 0.0949 µM, first compound 1 µM
[29] = second compound 0.0949 µM, first compound 3.16 µM
[30] = second compound 0.0949 µM, first compound 10 µM
[31] = second compound 0.3 µM, first compound 0.0316 µM
[32] = second compound 0.3 µM, first compound 0.1 µM
[33] = second compound 0.3 µM, first compound 0.316 µM
[34] = second compound 0.3 µM, first compound 1 µM
[35] = second compound 0.3 µM, first compound 3.16 µM
[36] = second compound 0.3 µM, first compound 10 µM
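Also: spheroids exposed to agents for one week before readout.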

## CC(Nc1ccc2c(c1)OCCn1cc(N3C(=O)OCC3C(F)F)nc1-2)C(N)=O (centres undefined) + CCn1c(-c2cccnc2C(C)OC)c2c3cc(ccc31)N1CCOC(CC(NC(=O)C(C(C)C)N(C)C(=O)C3(F)CCN(C(=O)C#CC(C)(C)N(C)C)CC3)C(=O)N3CCCC(N3)C(=O)OCC(C)(C)C2)C1
Second compound 0.000949 µM
  IC50: 931 nM
Second compound 0.003 µM
  IC50: 472 nM
Second compound 0.00949 µM
  IC50: 312 nM
Second compound 0.03 µM
  IC50: 571 nM
Second compound 0.0949 µM
  IC50: 172 nM
Second compound 0.3 µM
  IC50: 81.7 nM
[1]
  viability, T/C: 73.5%
[2]
  viability, T/C: 69.8%
[3]
  viability, T/C: 55.3%
[4]
  viability, T/C: 51.5%
[5]
  viability, T/C: 37.5%
[6]
  viability, T/C: 19.3%
[7]
  viability, T/C: 74.8%
[8]
  viability, T/C: 66.8%
[9]
  viability, T/C: 48%
[10]
  viability, T/C: 40.3%
[11]
  viability, T/C: 44%
[12]
  viability, T/C: 19.2%
[13]
  viability, T/C: 76.6%
[14]
  viability, T/C: 53.7%
[15]
  viability, T/C: 50.7%
[16]
  viability, T/C: 43.6%
[17]
  viability, T/C: 34%
[18]
  viability, T/C: 22.3%
[19]
  viability, T/C: 65.8%
[20]
  viability, T/C: 62.9%
[21]
  viability, T/C: 55.2%
[22]
  viability, T/C: 44.8%
[23]
  viability, T/C: 30.5%
[24]
  viability, T/C: 16.1%
[25]
  viability, T/C: 66.8%
[26]
  viability, T/C: 52%
[27]
  viability, T/C: 44.6%
[28]
  viability, T/C: 34.4%
[29]
  viability, T/C: 28%
[30]
  viability, T/C: 13.4%
[31]
  viability, T/C: 65.5%
[32]
  viability, T/C: 41.2%
[33]
  viability, T/C: 35.7%
[34]
  viability, T/C: 28.1%
[35]
  viability, T/C: 21.8%
[36]
  viability, T/C: 8.8%

## Cc1nc(N2CCC3(CC2)COC(C)C3N)c(CO)nc1Sc1ccnc(N)c1Cl (centres undefined) + CCn1c(-c2cc(N3CCN(C)CC3)cnc2C(C)OC)c2c3cc(ccc31)-c1csc(n1)CC(NC(=O)C1CC1C)C(=O)N1CCCC(N1)C(=O)OCC(C)(C)C2
Second compound 0.000949 µM
  IC50: > 10000 nM
Second compound 0.003 µM
  IC50: > 10000 nM
Second compound 0.00949 µM
  IC50: > 10000 nM
Second compound 0.03 µM
  IC50: > 10000 nM
Second compound 0.0949 µM
  IC50: > 10000 nM
Second compound 0.3 µM
  IC50: 8660 nM
[1]
  viability, T/C: 77.8%
[2]
  viability, T/C: 69.4%
[3]
  viability, T/C: 71.7%
[4]
  viability, T/C: 59%
[5]
  viability, T/C: 66.7%
[6]
  viability, T/C: 58.7%
[7]
  viability, T/C: 63.6%
[8]
  viability, T/C: 57.7%
[9]
  viability, T/C: 62.1%
[10]
  viability, T/C: 63.4%
[11]
  viability, T/C: 69.3%
[12]
  viability, T/C: 71.3%
[13]
  viability, T/C: 72.2%
[14]
  viability, T/C: 70.8%
[15]
  viability, T/C: 79.8%
[16]
  viability, T/C: 73.4%
[17]
  viability, T/C: 71.8%
[18]
  viability, T/C: 56.4%
[19]
  viability, T/C: 97.1%
[20]
  viability, T/C: 93.7%
[21]
  viability, T/C: 93.9%
[22]
  viability, T/C: 81%
[23]
  viability, T/C: 75.9%
[24]
  viability, T/C: 59.5%
[25]
  viability, T/C: 98.8%
[26]
  viability, T/C: 94%
[27]
  viability, T/C: 94.5%
[28]
  viability, T/C: 76.2%
[29]
  viability, T/C: 67.2%
[30]
  viability, T/C: 50.2%
[31]
  viability, T/C: 97.5%
[32]
  viability, T/C: 86.1%
[33]
  viability, T/C: 81.5%
[34]
  viability, T/C: 71.2%
[35]
  viability, T/C: 65.6%
[36]
  viability, T/C: 45.6%
